# Results taken from US11512097B2, “Heterocyclic compounds as Delta-5 desaturase inhibitors and methods of use” (Amgen Inc., priority 2019, dated 2022).
# Legend:
# [1] = target: T1, Delta-5-Desaturase (D5D) (Mus musculus, UniProt Q920L1); test: In vivo measurement of Delta-5-Desaturase inhibitory activity (plasma AA/DGLA ratio in DIO mice); details: single oral dose 30 mg/kg, relative to vehicle group
# T1 construct: tissue Jackson Laboratories strain #3800050; host or cells: whole animal (DIO mice)
# T1 sequence (Q920L1 1-447): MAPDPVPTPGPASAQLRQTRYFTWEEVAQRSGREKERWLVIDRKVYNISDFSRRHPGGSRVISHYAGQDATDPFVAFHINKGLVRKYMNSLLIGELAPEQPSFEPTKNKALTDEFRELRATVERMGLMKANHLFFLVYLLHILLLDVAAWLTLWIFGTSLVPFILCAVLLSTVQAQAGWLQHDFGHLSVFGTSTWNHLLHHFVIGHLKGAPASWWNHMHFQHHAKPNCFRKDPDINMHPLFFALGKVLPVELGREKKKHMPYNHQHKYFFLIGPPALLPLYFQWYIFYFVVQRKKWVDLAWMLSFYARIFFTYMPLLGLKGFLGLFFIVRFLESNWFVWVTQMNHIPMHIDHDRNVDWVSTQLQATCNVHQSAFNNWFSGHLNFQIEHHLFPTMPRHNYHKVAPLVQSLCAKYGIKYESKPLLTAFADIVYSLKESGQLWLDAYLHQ
# Protocol: In Vivo Measurement of Delta-5-Desaturase Inhibitory Activity
# Diet-induced obese (DIO; Jackson Laboratories strain #[…]) mice were used to screen for pharmacodynamic (PD) activity of test compounds. Generally, 14 to 24 week old DIO mice, were administered test compounds formulated in the vehicle of 2% hydroxypropyl methylcellulose (HPMC) and 1% Tween80. Animals were dosed on body weight by oral gavage with a single dose (30 mg/kg) for PD studies. Necropsy included plasma collection for PUFA analysis. 10 μl of plasma or standards diluted in surrogate matrix (65 g/l bovine serum albumin in Dulbecco's phosphate-buffered saline) were mixed with 10 μl of an internal standard (100 μM alpha-linolenic acid-d14 (ALA-d14, Cayman Chemical)) in a 96 well plate. 100 μl of 2N NAOH was added to the mixture for subsequent saponification at 65° C. for 1 hour. The mixture was then acidified with 50 μl of formic acid followed by two consecutive hexane extractions. Hexane (500 μl) was added and the mixture thoroughly mixed by vortexing, followed by centrifugation at 4,000 rpm for 15 min. The hexane phase was transferred to a new 1 ml 96 well plate and the remaining aqueous layer was extracted with hexane. The organic extracts were combined and the solvent was removed by placing the plate under nitrogen gas at 55° C. 250 μl of 90% methanol was added to the plate followed by vortexing for 2 minutes. 200 μl of the samples were transferred to a new 96 well polypropylene plate. The samples were analyzed on a LC-MS/MS for the following PUFAs: arachidonic acid (AA), dihomo-gamma-linolenic acid (DGLA), with ALA-d14 as the internal standard. Description of the LC-MS/MS method: 5 μl of sample was injected onto a Poroshell 120 EC-C18 3.0×50 mm, 1.9 μm id column. […] The PUFA peak areas were quantified by using the SCIEX Analyst software. […] The relative decrease of the AA/DGLA ratio of the test compound administered group relative to the vehicle administered group was calculated and used as an index for the degree of D5D inhibition. […]
# [2] = test system: Diet-Induced Obese (DIO) mice; test: Assessment of D5D inhibitor in Diet-Induced Obese (DIO) mice; format: in vivo, Male C57BL/6J DIO mice; details: for Fat mass / Lean mass: day 78, EchoMRI; for Blood glucose: day 81, non-fasted; for AA / DGLA: day 81, non-fasted plasma; for Body weight / Liver weights / epididymal WAT / inguinal WAT / mesenteric WAT: day 84; for Adiponectin / Cholesterol / Insulin / LDL cholesterol / Leptin / Resisten / Triglycerides: day 84, 4-hour fasted plasma
# Text: Assessment of D5D Inhibitor in Diet-Induced Obese (DIO) Mice
# Male C57BL/6J DIO mice (Jackson Laboratories, Stock No.: 380050) were fed high-fat diet (Research Diets, Inc., D12492) for 12 weeks. All animals were given free access to water and chow. Animals were acclimated to per os dosing for 3 days prior to the start of the experiment. Animals were randomized on body weight, fat mass, lean mass, and blood glucose concentrations in to groups of 8 to 10 animals per group. Animals were twice daily dosed per os with either: vehicle (2% hydroxypropyl methylcellulose and 1% tween 80 in water), Example 2 at 10 mg/kg, or 30 mg/kg (formulated in 2% hydroxypropyl methylcellulose and 1% tween 80 in water), or Example 45 at 3 mg/kg, or 10 mg/kg (formulated in 2% hydroxypropyl methylcellulose and 1% tween 80 in water). Three-day average (Example 2) or daily average (Example 45) food consumption was measured at the indicated times as shown in Table 17 and Table 18. Body composition (EchoMRI) was determined on day 78 for Example 2 and day 22 for Example 45. For Example 2, a non-fasted blood collection was performed on day 81; blood glucose was immediately measured, and plasma samples created from the remaining blood and used to measure DGLA and AA concentrations. On day 84, a 4-hour fasted blood collection was performed, and plasma samples were created from the blood and used to measure cholesterol, triglycerides, low-density lipoprotein (LDL) cholesterol, insulin, and adipokine (adiponectin, leptin, and resistin) levels. For Example 45, 4 hour fasted blood samples were collected on day 25 and blood glucose was measured immediately and the plasma samples created from the remaining blood were used to measure cholesterol, triglycerides, LDL cholesterol, insulin, DGLA and AA concentration. At the end of the studies, liver, epididymal white adipose tissue, inguinal white adipose tissue, mesenteric (only Example 2) white adipose tissue weights were recorded. Data was analyzed using GraphPad Prism v 7.04.
# The D5D inhibitor dose-dependently led to weight loss over the course of the experiment (Table 17 and Table 18) compared to vehicle controls. Consistently fat mass was reduced, along with lower inguinal, epididymal and mesenteric white adipose tissue (WAT) weights at necropsy. Blood glucose and plasma insulin levels were both reduced by the D5D inhibitor, along with reductions in plasma cholesterol and triglycerides. Evidence of target engagement was established by observing increases in plasma DGLA and decreases in plasma AA.
# [3] = Example 2 10 mg/kg twice daily per os
# [4] = Example 2 30 mg/kg twice daily per os
structure (smiles),measurement,setting,value
"Cc1nn2c(=O)c(-c3cnn(CC(F)(F)C(F)(F)F)c3)c(C(F)(F)F)nc2s1 [Example 2, 2-methyl-6-[1-(2,2,3,3,3-pentafluoropropyl)-1H-pyrazol-4-yl]-7-(trifluoromethyl)-5H-[1,3,4]thiadiazolo[3,2-a]pyrimidin-5-one]",Average % D5D Inhibition expressed as Plasma Endogenous AA/DGLA Ratio,[1],66%
same,Fat mass,[2]; [3],11.4 ± 0.6 g
same,Lean mass,[2]; [3],26.4 ± 0.6 g
same,Blood glucose,[2]; [3],165.3 ± 4.6 mg/dL
same,AA,[2]; [3],14.5 ± 0.9 µg/mL
same,DGLA,[2]; [3],167.8 µg/mL
same,Body weight,[2]; [3],38.1 ± 1.0 g
same,Liver weights,[2]; [3],3.0 ± 0.2 g
same,epididymal WAT,[2]; [3],1.2 ± 0.1 g
same,inguinal WAT,[2]; [3],1.2 ± 0.1 g
same,mesenteric WAT,[2]; [3],0.4 ± 0.0 g
same,Adiponectin,[2]; [3],48.3 ± 17.7 ng/mL
same,Cholesterol,[2]; [3],224.5 ± 7.3 mg/dL
same,Insulin,[2]; [3],1.8 ± 0.3 ng/mL
same,LDL cholesterol,[2]; [3],85.9 ± 3.8 mg/dL
same,Leptin,[2]; [3],10.7 ± 3.6 ng/mL
same,Resisten,[2]; [3],0.9 ± 0.2 ng/mL
same,Triglycerides,[2]; [3],14.3 ± 1.2 mg/dL
same,Food consumption,"[2]; Example 2 10 mg/kg twice daily per os, days 0-2, three-day average",2.5 ± 0.2 g/day
same,Food consumption,"[2]; Example 2 10 mg/kg twice daily per os, days 70-72, three-day average",2.5 ± 0.1 g/day
same,Fat mass,[2]; [4],5.7 ± 0.6 g
same,Lean mass,[2]; [4],26.1 ± 0.4 g
same,Blood glucose,[2]; [4],152.1 mg/dL
same,AA,[2]; [4],10.7 ± 0.6 µg/mL
same,DGLA,[2]; [4],137.7 µg/mL
same,Body weight,[2]; [4],32.3 ± 0.9 g
same,Liver weights,[2]; [4],3.2 ± 0.1 g
same,epididymal WAT,[2]; [4],0.75 ± 0.1 g
same,inguinal WAT,[2]; [4],0.5 ± 0.1 g
same,mesenteric WAT,[2]; [4],0.2 ± 0.0 g
same,Adiponectin,[2]; [4],51.0 ± 24.4 ng/mL
same,Cholesterol,[2]; [4],207.5 mg/dL
same,Insulin,[2]; [4],1.4 ± 0.2 ng/mL
same,LDL cholesterol,[2]; [4],80.6 ± 3.9 mg/dL
same,Leptin,[2]; [4],3.2 ± 1.6 ng/mL
same,Resisten,[2]; [4],0.7 ± 0.2 ng/mL
same,Triglycerides,[2]; [4],12.8 ± 1.0 mg/dL
same,Food consumption,"[2]; Example 2 30 mg/kg twice daily per os, days 0-2, three-day average",2.5 ± 0.2 g/day
same,Food consumption,"[2]; Example 2 30 mg/kg twice daily per os, days 70-72, three-day average",2.7 ± 0.1 g/day
